In US20210061917A1, “METHODS AND COMPOSITIONS FOR TREATING VITILIGO” (INSERM (Institut National de la Santé et de la Recherche …, priority 2018, published 2021):

Experiments:
Assay type in all cases: cell-based
CXCR3 [1] = target: T1, CXCR3 (Homo sapiens, UniProt P49682); assay: CXCL10-induced death of vitiligo melanocytes in co-culture with autologous CD3+ T cells, IncuCyte
T1 sequence (P49682 1-415 isoform P49682-2): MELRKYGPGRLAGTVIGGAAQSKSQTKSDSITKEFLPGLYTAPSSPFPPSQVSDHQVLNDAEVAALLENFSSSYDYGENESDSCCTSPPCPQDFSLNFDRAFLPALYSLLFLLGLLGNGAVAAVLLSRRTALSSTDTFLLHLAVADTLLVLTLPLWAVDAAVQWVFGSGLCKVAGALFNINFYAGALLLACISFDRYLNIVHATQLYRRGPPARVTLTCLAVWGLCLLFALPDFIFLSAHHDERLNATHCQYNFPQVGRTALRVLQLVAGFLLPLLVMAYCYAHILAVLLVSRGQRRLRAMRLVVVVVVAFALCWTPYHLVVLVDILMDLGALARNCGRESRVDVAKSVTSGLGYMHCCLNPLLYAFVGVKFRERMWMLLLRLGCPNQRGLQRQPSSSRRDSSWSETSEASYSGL
Source text: (A) CXCL10-induced death of vitiligo melanocytes in presence or absence of patients own autologous T cells. […] The next day, media was replaced and 3 days later patient's own CD3+ T cell were sorted and added to the melanocytes (n=3) prior to initiation of IncuCyte.

CXCR3 [2] = target: T1, CXCR3; assay: CXCL10-induced melanocyte death, IncuCyte live cell imaging, with CXCR3 antagonist, blocking antibody or siCXCR3; details: IFNγ-pretreated (50 ng/ml, 48 hrs) vitiligo melanocytes; AS612568 0.02, 0.2, 2 μM; FIG. 2A
Experimental: (A) Effect of CXCL10 (5, 20, 100 pg/ml) on cell viability in unstimulated or IFNγ stimulated (50 ng/ml for 48 hrs) melanocytes from vitiligo patients, in presence or absence of CXCR3 antagonist AS612568 (0.02 μM, 0.2 μM or 2 μM) (n=5-8). Cell viability was monitored using lncuCyte® live cell fluorescence imaging system. (B) Effect of siCXCR3 or siC on CXCL10 (100 pg/ml)-induced death of healthy (n=4-8) and vitiligo (n=4) melanocytes. Melanocytes were tracked with CellTracker™ Red CMPTX dye and dead cells tracked with IncuCyte® Cytotox Green reagent. […] Cell viability was monitored using IncuCyte® live cell fluorescence imaging system. […] Results are expressed as mean with SEM, *P<0.05, **P<0.01 and ***P<0.001.
Melanocytes were plated in 96-well plates (10,000/well) and stimulated with 50 ng/ml IFNγ for 48 hrs prior to transfection with 50 or 80 nM siCXCR3 or siC (SmartPool scramble sequence siRNA, Dharmacon, France) or with 80 nM custom-designed siCXCR3B or siC (ThermoFisher, France) using Lipofectamine® RNAiMAX Reagent (Invitrogen, France) in optiMEM medium (Invitrogen). […] Finally, Incucyte® green Cytotox Reagent (100 nM, Essen Bioscience, Michigan, USA) was added to all wells and melanocyte death monitored in real-time using IncuCyte® Zoom live-cell imaging system (Essen Biosciences) which was inside a 37° C. humidified CO2 incubator scanning the plate every 2 hrs. […]

human melanocytes = assay: Melanocyte death after chemokine stimulation, IncuCyte live cell imaging; details: for melanocyte death: chemokine 100 pg/ml, healthy and vitiligo melanocytes, 24 hrs, FIG. 2C
Experimental: (A) Effect of CXCL10 (5, 20, 100 pg/ml) on cell viability in unstimulated or IFNγ stimulated (50 ng/ml for 48 hrs) melanocytes from vitiligo patients, in presence or absence of CXCR3 antagonist AS612568 (0.02 μM, 0.2 μM or 2 μM) (n=5-8). Cell viability was monitored using lncuCyte® live cell fluorescence imaging system. (B) Effect of siCXCR3 or siC on CXCL10 (100 pg/ml)-induced death of healthy (n=4-8) and vitiligo (n=4) melanocytes. Melanocytes were tracked with CellTracker™ Red CMPTX dye and dead cells tracked with IncuCyte® Cytotox Green reagent. (C) Healthy and vitiligo melanocytes (n=6-12) were transfected with custom-designed siCXCR3B or siC and melanocyte death shown at 24 hrs following CXCL10, CXCL9 or CXCL11 (100 pg/ml) stimulation. (D) Effect of CXCL10 (100 pg/ml) on cell viability in untreated or IFNγ pretreated (50 ng/ml for 48 hrs) melanocytes from vitiligo patients, in presence or absence of CXCR3 blocking antibody (MAB-160, R&D Systems, USA at 1 or 10 μg/ml) (n=3). Cell viability was monitored using IncuCyte® live cell fluorescence imaging system. Melanocytes were tracked with CellTracker™ Red CMPTX dye and dead cells tracked with IncuCyte® Cytotox Green reagent. Results are expressed as mean with SEM, *P<0.05, **P<0.01 and ***P<0.001.
Melanocytes were plated in 96-well plates (10,000/well) and stimulated with 50 ng/ml IFNγ for 48 hrs prior to transfection with 50 or 80 nM siCXCR3 or siC (SmartPool scramble sequence siRNA, Dharmacon, France) or with 80 nM custom-designed siCXCR3B or siC (ThermoFisher, France) using Lipofectamine® RNAiMAX Reagent (Invitrogen, France) in optiMEM medium (Invitrogen). […] Finally, Incucyte® green Cytotox Reagent (100 nM, Essen Bioscience, Michigan, USA) was added to all wells and melanocyte death monitored in real-time using IncuCyte® Zoom live-cell imaging system (Essen Biosciences) which was inside a 37° C. humidified CO2 incubator scanning the plate every 2 hrs. Multiple images were collected per well and quantification of dead melanocytes (yellow co-localised cells) was analysed using the integrated Zoom® software. […]

With `N#Cc1ccc(S(=O)(=O)N(Cc2ccc(-c3nnn[nH]3)c(F)c2)Cc2ccccc2F)cc1` [AS612568, 4-cyano-N-(3-fluoro-4-(1H-tetrazol-5-yl)benzyl)-N-(2-fluorobenzyl)benzenesulfonamide] the “augmentation of T cell number” value (CXCR3 [1]; AS612568 2 μM, CD3+ T cells in IncuCyte co-culture, P=0.04, FIG. 3B) was “prevented”, the “potentiating effect of T cells on CXCL10-induced melanocyte death” value (CXCR3 [1]; AS612568 2 μM, IFNγ-pretreated vitiligo melanocytes plus autologous CD3+ T cells, P=0.008, FIG. 3A) was “prevented” and the T cell proliferation (CXCR3 [1]; AS612568, T cells co-cultured with IFNγ-primed, CXCL10-stimulated melanocytes, data not shown) was “prevented”. The “melanocyte death induced by CXCL10” value (CXCR3 [2]) was “inhibited melanocyte death induced by CXCL10 in a dose-dependent manner”.

For “CXCL10: recombinant human chemokine (PeproTech), CXCR3 ligand used as stimulus”, the “melanocyte death compared to non-stimulated melanocytes” value (human melanocytes; vitiligo melanocytes, IFNγ pre-treated, CXCL10 5, 20, 100 pg/ml, dose-dependent, P=0.006, FIG. 2A) was “significantly increased melanocyte death”.

B1: CXCL9: recombinant human chemokine (PeproTech), CXCR3 ligand used as stimulus (protein, UniProt Q07325 23-125, looked up)
C-X-C motif chemokine 9: TPVVRKGRCSCISTNQGTIHLQSLKDLKQFAPSPSCEKIEIIATLKNGVQTCLNPDSADVKELIKKWEKQVSQKKKQKNGKKHQKKKVLKVRKSQRSRQKKTT
B1 was tested, and the melanocyte death (human melanocytes) was “induced a significant melanocyte death”.

B2: CXCL11: recombinant human chemokine (PeproTech), CXCR3 ligand used as stimulus (protein, UniProt O14625 22-94, looked up)
C-X-C motif chemokine 11: FPMFKRGRCLCIGPGVKAVKVADIEKASIMYPSNNCDKIEVIITLKENKGQRCLNPKSKQARLIIKKVERKNF
With B2 the melanocyte death (human melanocytes) was “induced a significant melanocyte death”.
